Key:
[1] = tested on: adult osteoarthritic rats; experiment: MIA-OA osteoarthritis pain model, hind limb grip force; format: in vivo, Male Sprague Dawley rats; conditions: Rattus norvegicus, 480 h, read-out: % Effect; for inhibition in vivo at 1 mg/kg: 1 mg/kg i.p.; for inhibition in vivo at 3 mg/kg: 3 mg/kg i.p.
Protocol: This model, the MIA-OA model is well known to those skilled in the art. A general review of various models of pain is found in Joshi and Honore, Expert Opinion in Drug Discovery (2004) 1, pp. 323-334, and in the book ‘Drug Discovery and Evaluation, 2nd edition’ (H. Gerhard Vogel, editor; Springer-Verlag, New York, 2002; pp. 702-706).
Pain behavior was assessed by measurement of hind limb grip force (GF) in adult osteoarthritic rats. Male Sprague Dawley rats, 325-350 g, were injected in the unilateral knee join with a single intra-articular injection of sodium monoiodoacetate (MIA). All rats were tested at 20 days following MIA injection. A behavioral measure of activity-induced pain was carried out. Measurements of the peak hind limb grip force were conducted by recording the maximum compressive force (CFmax), in grams of force, exerted on a hind limb strain gauge setup, in a commercially available grip force measurement system (Columbus Instruments, Columbus, Ohio).
During testing, each rat was gently restrained by grasping it around its rib cage and then allowed to grasp the wire mesh frame attached to the strain gauge. The experimenter then moved the animal in a rostral-to-caudal direction until the grip was broken. Each rat was sequentially tested twice at approximately 2-3 min interval to obtain a raw mean grip force (CFmax). This raw mean grip force data was in turn converted to a maximum hindlimb cumulative compressive force (CFmax), as the grams of force/kg of body weight, for each animal.
For evaluating the compound effects, the hind limb grip force was conducted 20 days following the intra-articular injection of MIA. A group of age-matched naïve (not injected with MIA) animals was added as a comparator to the drug-dosed groups. The vehicle control response for each group of MIA-treated animals was defined as the 0% response (0% effect), whereas the naïve control group was defined as the normal response and as 100% effect. The % effects for each dose group was expressed as % return of response to normalcy, compared to the naïve group. That is, the % effect=(Treatment CFmax−Vehicle CFmax)/Vehicle CFmax]×100). Higher % effect numbers indicate increased relief from the pain in the model, with 100% indicating a return to the level of response seen in normal (non-osteoarthritic) animals. All experiments evaluating drug effects in this model were conducted in a randomized blinded fashion.
Male Sprague Dawley rats (250-300 g body weight) obtained from Charles River Laboratories (Wilmington, Mass.) were used for all experiments, unless indicated otherwise. The animals were housed in Association for Assessment and Accreditation of Laboratory Animal Care (AAALAC) approved facilities at Abbott Laboratories in a temperature-regulated environment under a controlled 12-h light-dark cycle, with lights on at 6:00 a.m. Food and water were available ad libitum at all times except during testing. All testing was done following procedures outlined in protocols approved by Abbott Laboratories' Institutional Animal Care and Use Committee.

[2] = ip, hind limb grip force (CFmax) 20 days after intra-articular MIA, % return to normalcy vs naive, mean ± SEM

| SMILES | melting point [°C] | inhibition in vivo at 1 mg/kg [1, 2] [%] | inhibition in vivo at 3 mg/kg [1, 2] [%] | inhibition in vivo at 10 mg/kg ([1]; ip, 10 mg/kg i.p., hind limb grip force (CFmax) 20 days after intra-articular MIA, % return to normalcy vs naive, mean ± SEM) [%] | inhibition in vivo at 30 mg/kg ([1]; 30 mg/kg, positive control, hind limb grip force 20 days after MIA) [%] |
| --- | --- | --- | --- | --- | --- |
| O=c1cccnn1-c1ccc2nc([C@H]3C[C@@H](N4CCCCC4)C3)sc2c1 [Example 1, Cis-2-[2-(3-piperidin-1-ylcyclobutyl)-1,3-benzothiazol-6-yl]pyridazin-3(2H)-one] | 127 to 128 | 51 ± 6 | 79 ± 6 | – | – |
| O=c1cccnn1-c1ccc2nc([C@H]3C[C@H](N4CCCCC4)C3)sc2c1 [Example 2, Trans-2-[2-(3-piperidin-1-ylcyclobutyl)-1,3-benzothiazol-6-yl]pyridazin-3(2H)-one] | – | – | 43 ± 13 | – | – |
| O=C1[C@@H](O)CCN1c1ccc2nc(C3CC(N4CCCCC4)C3)sc2c1 (stereo partly drawn) [Example 3, (S)-3-Hydroxy-1-[2-(3-piperidin-1-yl-cyclobutyl)-benzothiazol-6-yl]-pyrrolidin-2-one] | – | 26 ± 2 | 53 ± 5 | – | – |
| C[C@@H]1CCCN1CCc1cc2cc(-c3ccc(C#N)cc3)ccc2o1 [Example 4, (4-(2-(2-[2(R)-Methyl-1-pyrrolidinyl]ethyl)-1-benzofuran-5-yl)benzonitrile)] | – | 40 ± 4 | 56 ± 6 | – | – |
| CNC(=O)c1ccc(Oc2ccc3c(c2)CCN(C2CCC2)CC3)nc1 [Example 5, (6-(3-Cyclobutyl-2,3,4,5-tetrahydro-1H-benzo[d]azepin-7-yloxy)-N-methyl-nicotinamide), reference compound] | – | 54 ± 5 | 74 ± 4 | – | – |
| CNC(=O)c1cnc(Oc2ccc3c(c2)CCN(C2CCC2)CC3)cn1 [Example 6, (5-(3-cyclobutyl-2,3,4,5-tetrahydro-1H-benzo[d]azepin-7-yloxy)-N-methylpyrazine-2-carboxamide), reference compound] | – | 65 ± 9 | 90 ± 17 | – | – |
| CC(C)N1CCCN(C(=O)C2CCN(c3ccc(C(F)(F)F)nc3)CC2)CC1 [Example 7, (4-isopropyl-1,4-diazepan-1-yl)(1-(6-(trifluoromethyl)pyridin-3-yl)piperidin-4-yl)methanone, reference compound] | – | 51 ± 8 | 66 ± 6 | – | – |
| C[C@H]1CCCN1C[C@H]1C[C@@H]1c1ccc(-n2ncccc2=O)cc1 [Example 8, 2-[4-((1S,2S)-2-{[(2S)-2-methylpyrrolidin-1-yl]methyl}cyclopropyl)phenyl]pyridazin-3(2H)-one] | – | 47 ± 6 | 68 ± 4 | 82 ± 5 | – |
| Cc1ccc(-c2cc(C(F)(F)F)nn2-c2ccc(S(N)(=O)=O)cc2)cc1 [celecoxib, reference compound] | – | – | – | – | 89 |
